How the values were obtained:
[1] = in vitro; conditions: mouse
[2] = target: T1, BCRP (Homo sapiens, UniProt Q9UNQ0); test: Reversal of BCRP-mediated topotecan resistance in MCF7-MX100 cells (cell proliferation assay); conditions: for % of reversion of sensitivity of MCF7-MX100 towards topotecan: triazole dimers at 1.0 μM; for Topotecan resistance of MCF7-MX100 Therapeutic index: (IC50 towards L929 or Raw264.7)/(EC50 for reversing drug resistance)
T1 sequence (Q9UNQ0 1-655): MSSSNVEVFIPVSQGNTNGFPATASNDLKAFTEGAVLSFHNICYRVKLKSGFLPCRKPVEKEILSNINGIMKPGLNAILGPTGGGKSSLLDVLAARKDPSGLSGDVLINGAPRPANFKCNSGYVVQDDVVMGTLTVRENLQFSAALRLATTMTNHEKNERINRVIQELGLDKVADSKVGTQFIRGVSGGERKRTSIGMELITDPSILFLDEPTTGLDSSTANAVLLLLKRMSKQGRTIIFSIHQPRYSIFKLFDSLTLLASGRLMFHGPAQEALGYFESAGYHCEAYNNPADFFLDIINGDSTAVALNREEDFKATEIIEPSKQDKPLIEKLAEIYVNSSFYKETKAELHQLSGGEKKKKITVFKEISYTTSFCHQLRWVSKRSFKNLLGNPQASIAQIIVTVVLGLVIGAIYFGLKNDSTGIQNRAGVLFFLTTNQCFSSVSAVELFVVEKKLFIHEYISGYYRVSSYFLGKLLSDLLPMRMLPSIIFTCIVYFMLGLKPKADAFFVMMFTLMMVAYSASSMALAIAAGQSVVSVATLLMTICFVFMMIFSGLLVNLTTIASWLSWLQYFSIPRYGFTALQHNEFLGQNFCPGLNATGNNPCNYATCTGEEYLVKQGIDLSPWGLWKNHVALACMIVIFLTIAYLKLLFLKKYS

[3] = target: MRP1 (Homo sapiens, UniProt P33527); test: Reversal of MRP1-mediated DOX resistance in 2008/MRP1 cells (cell proliferation assay); conditions: for % of reversion of sensitivity of 2008/MRP1 towards DOX: triazole dimers at 1.0 μM; for DOX resistance of 2008/MRP1 Therapeutic index: (IC50 towards L929 or Raw264.7)/(EC50 for reversing drug resistance)
MRP1, sequence (P33527 whole entry): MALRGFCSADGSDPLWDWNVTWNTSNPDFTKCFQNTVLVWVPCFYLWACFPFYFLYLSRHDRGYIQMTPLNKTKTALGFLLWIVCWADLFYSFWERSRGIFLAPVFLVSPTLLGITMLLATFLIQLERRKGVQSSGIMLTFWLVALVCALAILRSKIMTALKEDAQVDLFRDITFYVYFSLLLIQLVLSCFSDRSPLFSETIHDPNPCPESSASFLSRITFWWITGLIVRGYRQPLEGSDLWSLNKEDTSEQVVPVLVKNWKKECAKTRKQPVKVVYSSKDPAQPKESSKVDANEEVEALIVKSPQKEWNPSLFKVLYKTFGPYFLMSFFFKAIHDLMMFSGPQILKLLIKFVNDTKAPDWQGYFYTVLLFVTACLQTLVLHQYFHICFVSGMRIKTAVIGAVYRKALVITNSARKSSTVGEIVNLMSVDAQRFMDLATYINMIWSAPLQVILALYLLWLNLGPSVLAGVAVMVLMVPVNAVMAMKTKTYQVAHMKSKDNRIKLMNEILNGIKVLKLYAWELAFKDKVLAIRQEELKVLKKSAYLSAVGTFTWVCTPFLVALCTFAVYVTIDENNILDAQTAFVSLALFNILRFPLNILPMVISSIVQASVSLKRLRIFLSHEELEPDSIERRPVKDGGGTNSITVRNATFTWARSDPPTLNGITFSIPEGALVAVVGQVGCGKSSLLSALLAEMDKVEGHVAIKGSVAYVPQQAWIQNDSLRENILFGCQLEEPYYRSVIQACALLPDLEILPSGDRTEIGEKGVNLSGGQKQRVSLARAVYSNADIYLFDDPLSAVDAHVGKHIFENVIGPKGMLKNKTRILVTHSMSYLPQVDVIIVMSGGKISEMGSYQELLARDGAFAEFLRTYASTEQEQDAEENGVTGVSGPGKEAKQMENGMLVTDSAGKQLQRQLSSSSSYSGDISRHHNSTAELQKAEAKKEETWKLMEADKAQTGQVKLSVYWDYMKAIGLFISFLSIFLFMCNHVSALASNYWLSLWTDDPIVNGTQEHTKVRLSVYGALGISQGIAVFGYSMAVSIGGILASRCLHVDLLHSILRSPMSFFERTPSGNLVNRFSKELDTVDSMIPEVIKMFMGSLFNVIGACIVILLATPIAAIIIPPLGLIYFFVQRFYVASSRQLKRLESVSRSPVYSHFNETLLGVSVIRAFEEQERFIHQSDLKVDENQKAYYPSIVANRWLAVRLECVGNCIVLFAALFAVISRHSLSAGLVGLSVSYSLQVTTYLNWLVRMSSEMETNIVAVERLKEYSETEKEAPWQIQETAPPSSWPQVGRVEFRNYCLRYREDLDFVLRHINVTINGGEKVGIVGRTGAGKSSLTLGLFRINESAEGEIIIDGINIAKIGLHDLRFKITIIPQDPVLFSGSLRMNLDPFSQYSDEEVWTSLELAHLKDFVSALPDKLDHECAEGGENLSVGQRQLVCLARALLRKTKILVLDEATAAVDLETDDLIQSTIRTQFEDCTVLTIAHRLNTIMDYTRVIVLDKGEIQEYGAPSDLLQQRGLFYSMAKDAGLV

[4] = tested on: P-gp, MRP1 and BCRP transporters; test: Selectivity for ABC transporters, determined from % of reversion (Tables 1 and 2); type: cell-based, human; conditions: determined from % of reversion in Table 1 (>80% strongly, 79-50% moderately selective)
Text: Generally, the triazole dimers library can be divided into mono-selective, dual-selective and multi-selective ABC transporter modulators. Table 2 summarizes the selectivity of different active triazole dimers and some monomeric azides for the ABC transporters. […] From the study, it seems that the simple monomeric azides could be a highly BCRP-selective inhibitor. […] It is possible that differently selective (mono-, dual- and multi-) inhibitors of drug transporters could be potentially useful tools for investigation of complicated drug-resistance phenotypes and eventually, for treatment of drug-resistant cancers caused by overexpression of ABC transporters.
The selectivity of active triazole compounds for various ABC transporters was determined from the Table 1. It would be considered as strongly selective if it causes >80% of reversion. It would be considered as moderately selective if it results in 79-50% of reversion. Overall, the active triazole compounds can be divided into mono-, dual- and multi-selective for P-gp, MRP1 and BCRP transporters.

[5] = target: T1, BCRP; test: cell-based

SMILES	IC50 at 5 days [1]	% of reversion of sensitivity of MCF7-MX100 towards topotecan [2]	% of reversion of sensitivity of 2008/MRP1 towards DOX [3]	Selectivity for ABC transporters (P-gp, MRP1, BCRP) [4]	DOX resistance of 2008/MRP1 Therapeutic index [3]	EC50 [5]	Topotecan resistance of MCF7-MX100 Therapeutic index [2]
O=c1cc(-c2ccc(OCCOCCn3cc(CCCOc4ccc(-c5cc(=O)c6ccc(F)cc6o5)cc4)nn3)cc2)oc2ccccc12 [Ac3Az1, 7-Fluoro-2-(4-(3-(1-(2-(2-(4-(4-oxo-4H-chromen-2-yl)phenoxy)ethoxy)ethyl)-1H-1,2,3-triazol-4-yl)propoxy)phenyl)-4H-chromen-4-one]	> 100 µM	about 53.3%					
O=C(/C=C/c1ccc(OCCCCc2cn(CCOCCOc3ccc(-c4cc(=O)c5ccccc5o4)cc3)nn2)cc1)c1ccc(F)cc1O [Ac10Az1, (E)-2-(4-(2-(2-(4-(4-(4-(3-(4-Fluoro-2-hydroxyphenyl)-3-oxoprop-1-en-1-yl)phenoxy)butyl)-1H-1,2,3-triazol-1-yl)ethoxy)ethoxy)phenyl)-4H-chromen-4-one]			~54.8%	MRP1- and BCRP-dual selectivity			
Cc1ccc2oc(-c3ccc(OCCOCCOCCn4cc(CN(CCOc5ccc6c(=O)cc(-c7ccccc7)oc6c5)Cc5ccccc5)nn4)cc3)cc(=O)c2c1 [Ac16Az3, 7-(2-(Benzyl((1-(2-(2-(2-(4-(6-methyl-4-oxo-4H-chromen-2-yl)phenoxy)ethoxy)ethoxy)ethyl)-1H-1,2,3-triazol-4-yl)methyl)amino)ethoxy)-2-phenyl-4H-chromen-4-one]	> 100 µM			mono-MRP1 selectivity	>726.2		
O=c1cc(-c2ccc(OCCOCCn3cc(CN(Cc4ccccc4)Cc4cn(CCOCCOc5ccc(-c6cc(=O)c7ccccc7o6)cc5)nn4)nn3)cc2)oc2ccccc12 [Ac15Az1, 2,2′-((((((4,4′-((Benzylazanediyl)bis(methylene))bis(1H-1,2,3-triazole-4,1-diyl))bis(ethane-2,1-diyl))bis(oxy))bis(ethane-2,1-diyl))bis(oxy))bis(4,1-phenylene))bis(4H-chromen-4-one)]	> 100 µM			MRP1- and BCRP-dual selectivity		0.111 ± 0.009 µM	
COC(=O)c1cccc(COc2c(-c3ccc(OCCOCCN=[N+]=[N-])cc3)oc3ccccc3c2=O)c1 [Az8, Methyl 3-(((2-(4-(2-(2-azidoethoxy)ethoxy)phenyl)-4-oxo-4H-chromen-3-yl)oxy)methyl)benzoate]	67.5 µM			mono-BCRP selectivity			562.5
O=c1cc(-c2ccc(OCCOCCn3cc(CN(CCOc4ccc5c(=O)cc(-c6ccccc6)oc5c4)Cc4ccccc4)nn3)cc2)oc2ccccc12 [Ac16Az1, 7-(2-(Benzyl((1-(2-(2-(4-(4-oxo-4H-chromen-2-yl)phenoxy)ethoxy)ethyl)-1H-1,2,3-triazol-4-yl)methyl)amino)ethoxy)-2-phenyl-4H-chromen-4-one]	> 100 µM	80.0%					
O=c1cc(-c2ccccc2)oc2cc(OCCN(Cc3ccccc3)Cc3cn(CCOCCOCCOc4ccc(-c5oc6ccccc6c(=O)c5OCc5ccccc5)cc4)nn3)ccc12 [Ac16Az5, 7-(2-(Benzyl((1-(2-(2-(2-(4-(3-(benzyloxy)-4-oxo-4H-chromen-2-yl)phenoxy)ethoxy)ethoxy)ethyl)-1H-1,2,3-triazol-4-yl)methyl)amino)ethoxy)-2-phenyl-4H-chromen-4-one]	> 100 µM		about 77.8%	mono-MRP1 selectivity	>331.5		
[N-]=[N+]=NCCOCCOc1ccc(-c2oc3ccccc3c(=O)c2OCc2ccccc2)cc1 [Az10, 2-(4-(2-(2-Azidoethoxy)ethoxy)phenyl)-3-(benzyloxy)-4H-chromen-4-one]	51 µM			mono-BCRP selectivity		0.032 µM	
Cc1ccc2oc(-c3ccc(OCCCCc4cn(CCOCCOCCOc5ccc(-c6cc(=O)c7cc(F)ccc7o6)cc5)nn4)cc3)cc(=O)c2c1 [Ac5Az4, 6-Fluoro-2-(4-(2-(2-(2-(4-(4-(4-(6-methyl-4-oxo-4H-chromen-2-yl)phenoxy)butyl)-1H-1,2,3-triazol-1-yl)ethoxy)ethoxy)ethoxy)phenyl)-4H-chromen-4-one]	> 100 µM					0.018 µM	
Cc1ccc2oc(-c3ccc(OCCCCc4cn(CCOCCOc5ccc(-c6oc7ccccc7c(=O)c6OCc6ccccc6)cc5)nn4)cc3)cc(=O)c2c1 [Ac5Az10, 3-(Benzyloxy)-2-(4-(2-(2-(4-(4-(4-(6-methyl-4-oxo-4H-chromen-2-yl)phenoxy)butyl)-1H-1,2,3-triazol-1-yl)ethoxy)ethoxy)phenyl)-4H-chromen-4-one]	> 100 µM	about 80.0%		mono-BCRP selectivity			>13333.3
O=c1c(OCc2ccccc2)c(-c2ccc(OCCOCCOCCn3cc(CN(Cc4ccccc4)Cc4cn(CCOCCOCCOc5ccc(-c6oc7ccccc7c(=O)c6OCc6ccccc6)cc5)nn4)nn3)cc2)oc2ccccc12 [Ac15Az5, 2,2′-((((((((4,4′-((Benzylazanediyl)bis(methylene))bis(1H-1,2,3-triazole-4,1-diyl))bis(ethane-2,1-diyl))bis(oxy))bis(ethane-2,1-diyl))bis(oxy))bis(ethane-2,1-diyl))bis(oxy))bis(4,1-phenylene))bis(3-(benzyloxy)-4H-chromen-4-one)]	> 100 µM			mono-BCRP selectivity		0.048 µM	
O=c1[nH]c(-c2ccc(OCCCc3cn(CCOCCOc4ccc(-c5cc(=O)c6ccccc6o5)cc4)nn3)cc2)nc2ccccc12 [Ac11Az1, 2-(4-(3-(1-(2-(2-(4-(4-Oxo-4H-chromen-2-yl)phenoxy)ethoxy)ethyl)-1H-1,2,3-triazol-4-yl)propoxy)phenyl)quinazolin-4(3H)-one]	> 100 µM			mono-BCRP selectivity			>3225.8
O=c1cc(-c2ccccc2)oc2cc(OCCOCCOCCn3cc(CN(CCOc4ccc5c(=O)cc(-c6ccccc6)oc5c4)Cc4ccccc4)nn3)ccc12 [Ac16Az12, 7-(2-(Benzyl((1-(2-(2-(2-((4-oxo-2-phenyl-4H-chromen-7-yl)oxy)ethoxy)ethoxy)ethyl)-1H-1,2,3-triazol-4-yl)methyl)amino)ethoxy)-2-phenyl-4H-chromen-4-one]	> 100 µM			mono-MRP1 selectivity	>480.8		
Cc1ccc2oc(-c3ccc(OCCCCc4cn(CCOCCOCCOc5ccc(-c6oc7ccccc7c(=O)c6OCc6ccccc6)cc5)nn4)cc3)cc(=O)c2c1 [Ac5Az5, 3-(Benzyloxy)-2-(4-(2-(2-(2-(4-(4-(4-(6-methyl-4-oxo-4H-chromen-2-yl)phenoxy)butyl)-1H-1,2,3-triazol-1-yl)ethoxy)ethoxy)ethoxy)phenyl)-4H-chromen-4-one]	> 100 µM			Pgp- and BCRP-dual selectivity		0.033 µM	
